Measurements taken from article PMC3711802 (IUBMB life, 2012).
Where two headings read alike, the source gives them in different places.

What was measured:
[1] = system: EGFR; details: ref [8] Li et al., cited from earlier work
[2] = system: EGFR; details: cited from earlier work
[3] = molecular target: EGFR (Homo sapiens, UniProt P00533); assay: Displacement of bound [^125I]-EGF in A431 cells; assay type: binding
[4] = system: A431 subcutaneous xenografts; assay: Treatment of subcutaneous A431 xenografts in nude mice; assay type: in vivo, human; details: EGFR over-expressing cancers
[5] = system: EGFR expressing cells; details: in vitro and in vivo, cited from earlier work

YHWYGYTPQNVI [GE11]
affinity to the EGFR (in words) ([1]; as a free ligand): high affinity
affinity to the EGFR ([1]; free ligand): ~ 22 nM
EGFR activation ([2]; as previously shown by us, ref [9],[10]): does not activate the receptor
EGFR activation ([2]; ref [8]): does not activate the EGFR
EGFR activation ([2]; ref [9],[10]): without EGFR activation

EGF: Recombinant human EGF (hEGF, Peprotech Asia)
EGFR activation upon binding ([2]; ref [20]): activates the kinase moiety of the receptor

Polyethyleneimine-polyetheleneglycol-EGF [PP-EGF]
enhancement of potency by complexation with PolyIC ([3]; [^125I]-EGF displacement, PolyIC complex vs uncomplexed conjugate): approximately 10 fold
in vitro and in vivo efficacy of both vectors in PolyIC treatment [4]: in vitro and in vivo efficacies of both vectors are comparable

Polyethyleneimine-polyetheleneglycol-GE11 [PPGE11]
EGFR-binding affinity/inhibitory potency compared to GE11 ([3]; vs free GE11): much more potent EGFR binder as compared to GE11
in vitro and in vivo efficacy of both vectors in PolyIC treatment [4]: in vitro and in vivo efficacies of both vectors are comparable
gene delivery into EGFR expressing cells ([5]; ref [9],[10],[16]): effective and specific gene delivery into EGFR expressing cells
targeting of EGFR over-expressing tumors ([5]; ref [9],[10]): enabled the targeting of EGFR over-expressing tumors in vitro and in vivo
